Measured values published in patent US5663157A, “22-en-25-oxa derivatives in the vitamin D series, process for their production, pharmaceutical preparations containing these derivatives as well as their use as pharmaceutical agents” (Schering Aktiengesellschaft, priority 1992, dated 1997).

Key:
HL 60 cells = experiment: HL 60 differentiation induction (NBT reduction to formazan); type: cell-based; details: Homo sapiens, 96 hours incubation, formazan at 650 nm, read-out: ED50 (differentiation induction of HL 60 cells to macrophages)
Procedure: HL 60 cells are cultivated in tissue-culture medium (RPMI-10% fetal calf serum) at 37° C. in an atmosphere of 5% CO2 in air.
For substance testing, the cells are centrifuged off and 2.8 ×10^5 cells/ml in phenol red-free tissue-culture medium are taken up. The test substances are dissolved in ethanol and diluted with tissue-culture medium without phenol red to the desired concentration. The dilution stages are mixed with the cell suspension in a ratio of 1:10 and pipetted in 100 μl each of this cell suspension mixed with substance in an indentation of a 96-hole plate. For control, a cell suspension is analogously mixed with the solvent.
After incubation over 96 hours at 37° C. in 5% CO2 in air, 100 μl of an NBT-TPA solution (nitro blue tetrazolium (NBT), final concentration in the batch of 1 mg/ml, tetradecanoyl phorbol myristate-13-acetate (TPA), final concentration in the batch of 2 ×10^-7 mol/l) is pipetted in the cell suspension in every indentation of the 96-hole plate.
By incubation over 2 hours at 37° C. and 5% CO2 in air, NBT is reduced to insoluble formazan because of the intracellular oxygen radical release, stimulated by TPA, in the cells differentiated to macrophages.
For completion of the reaction, the indentations of the 96-hole plate are suctioned off, and the adhering cells are fixed by adding methanol and dried after fixing.
To dissolve the formed intracellular formazan crystals, 100 μl of potassium hydroxide (2 val/l) and 100 μl of dimethyl sulfoxide are pipetted in each indentation and ultrasonically treated for 1 minute. The concentration of formazan is measured by spectrophotometry at 650 nm.
The concentration of formed formazan is regarded as a measurement for the differentiation induction of the HL 60 cells to macrophages.

[1] = hypercalcemic and hypercalcinuric activity in vivo; set-up: species or system Wistar rats; details: for calcium excretion in urine, second collecting phase (16-22 hours): after oral calcium, solvent control 1.5 μmol/animal; for calcium excretion in urine, first collecting phase (0-16 hours): solvent control 12.2 μmol/animal; for calcium excretion in second collecting phase (16-22 hours), result in words: 200 μg/kg s.c. versus calcitriol 2 μg/kg and solvent control; for serum calcium concentration: 22 hours after administration, solvent control 3.0 mmol/l; for hypercalcemia induction: 200 μg/kg subcutaneous; for hypercalcemia induction / in vivo potency reduced by factor in comparison to calcitriol: male Wistar rats; for in vivo potency reduced by factor in comparison to calcitriol: calcium metabolism, subcutaneous
Procedure: To assess the corresponding activities of the substances according to the invention, the hypercalcemic and hypercalcinuric activity in vivo is determined. […] Urine is collected in the period of 0-16 hours after substance administration. Then, the animals orally receive 1 μmol of calcium in 6.5% klucel (hydroxypropyl cellulose) and again urine is collected for the period of 16-22 hours after substance administration. The urine volume of each fraction is measured to measure the absolute calcium excretion. After 22 hours, the animals are killed by decapitation and the blood is collected. The calcium concentration in serum and urine is determined by flame photometry.

SMILES | EC50 (HL 60 cells) [nM] | calcium excretion in urine, second collecting phase (16-22 hours) ([1]; calcitriol 2 μg/kg s.c.) [μmol/animal] | calcium excretion in urine, first collecting phase (0-16 hours) ([1]; calcitriol 2 μg/kg s.c.) [μmol/animal] | calcium excretion in second collecting phase (16-22 hours), result in words [1] | serum calcium concentration ([1]; 200 μg/kg s.c.) [mmol/L] | calcium excretion in urine, second collecting phase (16-22 hours) ([1]; 200 μg/kg s.c.) [μmol/animal] | calcium excretion in urine, first collecting phase (0-16 hours) ([1]; 200 μg/kg s.c.) [μmol/animal] | hypercalcemia induction [1] | in vivo potency reduced by factor in comparison to calcitriol [1]
C=C1/C(=C\C=C2/CCC[C@]3(C)[C@@H]([C@H](C)CCCC(C)(C)O)CC[C@@H]23)C[C@@H](O)C[C@@H]1O [calcitriol, 1α,25-Dihydroxycholecalciferol, reference compound] | 1.6 | 25.1 | 40.6 |  |  |  |  |  | 
C=C1/C(=C\C=C2/CCC[C@]3(C)[C@@H]([C@H](C)/C=C/COCC(C)(C)O)CC[C@@H]23)C[C@@H](O)C[C@@H]1O [compound 16, (5Z,7E,22E)-(1S,3R)-24-(2-Hydroxy-2-methylpropoxy)-9,10-secochola-5,7,10(19),22-tetraene-1,3-diol] | 3.2 |  |  | not increased relative to the solvent control | 3.0 | 3.6 | 62.4 | no hypercalcemia | > 100
C=C1/C(=C\C=C2/CCC[C@]3(C)[C@@H]([C@H](C)/C=C/COCC(O)(CC)CC)CC[C@@H]23)C[C@@H](O)C[C@@H]1O [compound 17, (5Z,7E,22E)-(1S,3R)-24-(2-Ethyl-2-hydroxybutoxy)-9,10-secochola-5,7,10(19),22-tetraene-1,3-diol] | 1 |  |  | not significantly different to the standard calcitriol | 3.4 | 47.0 | 61.7 | slight hypercalcemia | ~100
